Values of other authors in patent US20230338413A1, “ORAL DELIVERY OF HEPARINS” (GUANGZHOU DAZHOU BIOMEDICINE LTD., priority 2021, published 2023).

For `O=C([O-])CCCCCCCNC(=O)c1ccccc1O.[Na+]` [SNAC, sodium N-(8-(2-hydroxybenzoyl)amino)caprylate], the Effects on coagulation (SNAC by itself, initial clinical studies) is given as “no effects on coagulation” and the “Measurements of anticoagulation (aPTT, TFPI and anti-Factors IIa and Xa levels)” value (human subjects, single oral dose: 30,000 USP Heparin Units alone or SNAC alone 1.4 to 10.5 g) is given as “did not change”.
